Results reported in patent US7531320B2, “Modulation of β-catenin/TCF-activated transcription” (priority 2003, dated 2009).

Columns and labels:
axin2 = assay: Real Time RT-PCR in SW480 cells, axin2; type: cell-based, human; conditions: 25 μM; for ΔCT axin2: relative to β-actin
Description: (§1) The RNeasy Midi Kit (Qiagen) was used for RNA extraction and Real Time RT-PCR was performed according to the protocol provided with the SYBR Green PCR Master Mix Kit (Perkin Elmer Biosystems, Shelton, Conn.). The primers used for cyclin D1, axin2, hnkd, c-myc, c-jun, and fra-1 amplifications were: cyclin D1 forward primer:5′-[…]-CCTGCTG-3′ (SEQ ID NO: 32) reverse primer: 5′-[…]-3′ (SEQ ID NO: 33) leading to a product size of approximately 300 bp; axin2 forward primer: 5′-[…] GGAAA-CT-3′ (SEQ ID NO: 34) and reverse primer: 5′-[…]-GAGA-3′ (SEQ ID NO: 35); hnkd forward primer: 5′-[…] TTGCGT-3′ (SEQ ID NO: 36) and the reverse primer: 5′-[…] ACGT-3′ (SEQ ID NO: 37); c-myc forward primer: 5′-GAA-[…] CTGC-3′ (SEQ ID NO: 38) and reverse primer: 5′-[…]-G-3′ (SEQ ID NO: 39); c-jun forward primer: 5′-[…]-3′ (SEQ ID NO: 40) and reverse primer: 5′-[…]-3′ (SEQ ID NO: 41); fra-1 forward primer: 5′-ACC-[…]-[…]-3′ (SEQ ID NO: 42) and reverse primer: 5′-[…]-TT-3′ (SEQ ID NO: 43). β-actin was used for normalization. […]
(§2) 1 μg of mRNA, for each time point, was subjected to Real Time RT-PCR. Expression level of endogenous cyclin D1, c-myc, fibronectin, hnkd, axin2, c-jun, and BMP-4 were measured relative to β-actin. Quantitation of The ΔCycle of Threshold (CT) values was determined by subtracting the average values of each set by the corresponding average values obtained for β-actin. […]
(§3) The cyclin D1 gene is inappropriately expressed in many different tumor types, and is known to be a direct target of the Wnt/β-catenin pathway (Shtutman et al., “The cyclin D1 gene is a target of the beta-catenin/LEF-1 pathway,” Proc. Natl. Acad. Sci. USA 96:5522-27 (1999); Tetsu et al., “Beta-catenin regulates expression of cyclin D1 in colon carcinoma cells,” Nature 398:422-26 (1999)). […] Expression level of endogenous cyclin D1, c-myc, fibronectin, hnkd, axin2, c-jun, and BMP-4 were measured relative to β-actin. Quantitation of The ΔCycle of Threshold (CT) values was determined by subtracting the average values of each set by the corresponding average values obtained for β-actin. […]

c-myc = assay: Real Time RT-PCR in SW480 cells, c-myc; type: cell-based, human; conditions: 25 μM; for ΔCT c-myc: relative to β-actin
Description: as §1, §2, §3

For `O=C1C(Cc2ccc(O)cc2)N2C(=O)CCN(C(=O)NCc3ccccc3)C2CN1Cc1cccc2ccccc12` (stereo not drawn) [COMPOUND 1], the “mRNA axin2 (direction)” value (axin2) was “↓”, the “ΔCT axin2” value (axin2; 4 hours) was 0.3 and the “ΔCT axin2” value (axin2; 8 hours) was 0.8. The “mRNA c-myc (direction)” value (c-myc) was “↑”, the ΔCT c-myc (c-myc; 4 hours) was −0.9 and the ΔCT c-myc (c-myc; 8 hours) was −2.4.
